Measured values: article PMC9895451, “Genetic and pharmacologic inhibition of ALDH1A3 as a treatment of β-cell failure” (Nature Communications, 2023)

Biological target: T1, ALDH1A3 (Homo sapiens, UniProt P47895)
T1 sequence (P47895 2-512): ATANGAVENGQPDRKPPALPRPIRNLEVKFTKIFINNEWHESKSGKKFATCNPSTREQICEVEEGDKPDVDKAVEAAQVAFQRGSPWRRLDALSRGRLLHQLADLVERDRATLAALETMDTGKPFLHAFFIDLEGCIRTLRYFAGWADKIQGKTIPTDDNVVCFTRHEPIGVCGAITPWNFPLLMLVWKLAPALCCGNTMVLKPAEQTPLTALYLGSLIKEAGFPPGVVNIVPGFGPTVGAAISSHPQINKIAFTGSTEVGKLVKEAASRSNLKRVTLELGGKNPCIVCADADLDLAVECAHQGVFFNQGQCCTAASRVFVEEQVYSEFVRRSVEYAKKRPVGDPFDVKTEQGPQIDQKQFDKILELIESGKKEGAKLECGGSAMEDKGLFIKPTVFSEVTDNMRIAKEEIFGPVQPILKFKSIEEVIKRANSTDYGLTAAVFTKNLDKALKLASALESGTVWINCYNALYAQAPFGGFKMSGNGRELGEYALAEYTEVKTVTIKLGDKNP
Assay: Aldefluor assay in A375 cells; also recombinant human ALDH1a3 in crude bacterial lysate (resazurin/diaphorase-coupled)
Assay type: cell-based

**Q.** For CCc1cnccc1C(=O)Nc1cc2c(cc1F)NC(=O)CC2 [KOTX1], which IC50 is on record?
**A.** 5.1 nM
